Results as given in US6649615B2, “Method for inhibiting fibrogenesis” (Institute National de la Sante et de la Recherche Medicale …, priority 2002, dated 2003).

Columns and labels:
HSC-T6 = assay: Hepatic stellate cell proliferation assay (tetrazolium dye reduction); type: cell-based, rat; conditions: 2 days exposure
Description: FIG. 3: Effect of norepinephrin on hepatic stellate cell (HSC) proliferation. Cells were exposed to increasing concentrations of norepinephrin for 2 days. Cell number was evaluated through the measurement of the reduction of the dye 3-(4,5-dimethylthiazol-2yl)-2,5 diphenyltetrazolium.
FIG. 4: Effect of prazosin on hepatic stellate cell proliferation induced by norepinephrin Cells were exposed to increasing concentrations of prazosin, either alone (open symbols), or in the presence of 100 nM norepinephrin (closed symbols). Cell number was evaluated through the measurement of the reduction of the dye 3-(4,5-dimethylthiazol-2yl)-2,5 diphenyltetrazolium. The marginal proliferation index was calculated as: (ODexperimental sample—ODday 0)/(ODcontrol—ODday 0), where OD is the optical density measured at the end of the experiment.
(§1) The inventors used an established rat HSC cell line, named HSC-T6.
Cells were exposed to increasing concentrations of norepinephrin for 2 days. In some experiments, cells were also exposed to increasing concentrations of prazosin. Cell number was evaluated through the measurement of the reduction of the dye 3-(4,5-dimethylthiazol-2yl)-2,5 diphenyltetrazolium.

TIMP-1 mRNA = TIMP-1 mRNA expression by cultured HSC-T6 cells (Northern blot); type: cell-based, rat; conditions: mean ±SEM
Description: as §1
TIMP-1 increases fibrosis deposition by inhibiting its degradation by matrix metalloproteinases. The inventors observed in example 1 that noradrenergic antagonism in vivo led to a drastic decrease in liver TIMP-1 mRNA expression. They have further measured the effect of norepinephrin on TIMP-1 mRNA expression by cultured HSC-T6 cells. Total RNA was purified from cells exposed for 3, 6, or 24 hours to 100 nM norepinephrin. The RNAs were analyzed by Northern blot with a probe specific for rat TIMP-1. The blots were subsequently dehybridized and rehybridized with a probe to rat glyceraldehyde 3-phosphate dehydrogenase to ensure proper loading and transfer. TIMP-1/GADPH ratios were calculated and the results are shown respective to control values without norepinephrin.
Results are expressed as TIMP-1/GAPDH ratios relative to control values (mean ±SEM)

| Molecule | concentration at plateau of HSC-T6 proliferation increase (HSC-T6) [nM] | EC50 (HSC-T6; Rattus norvegicus, HSC-T6, 48 h, mean of 5 independent experiments in triplicate, read-out: Half-maximal effect on HSC-T6 proliferation) [µM] | TIMP-1/GAPDH ratio relative to control (TIMP-1 mRNA; Norepinephrin 100 nM, 3 h) | TIMP-1/GAPDH ratio relative to control (TIMP-1 mRNA; Norepinephrin 100 nM, 6 h) | TIMP-1/GAPDH ratio relative to control (TIMP-1 mRNA; Norepinephrin 100 nM, 24 h) | TIMP-1/GAPDH ratio relative to control (TIMP-1 mRNA; TGFβ1 0,1 ng/ml, 3 h) | TIMP-1/GAPDH ratio relative to control (TIMP-1 mRNA; TGFβ1 0,1 ng/ml, 6 h) | TIMP-1/GAPDH ratio relative to control (TIMP-1 mRNA; TGFβ1 0,1 ng/ml, 24 h) |
| --- | --- | --- | --- | --- | --- | --- | --- | --- |
| NC[C@H](O)c1ccc(O)c(O)c1 [norepinephrin] | 100 | 0.025 | 1,30 ± 0,15 | 1,38 ± 0,13 | 1,15 ± 0,18 |  |  |  |
| TGFβ1: transforming growth factor β1, a major agonist of liver fibrogenesis |  |  |  |  |  | 1,56 ± 0,20 | 1,38 ± 0,11 | 1,33 ± 0,09 |
